{
  "source": "patent US8853183B2",
  "about": "“Prognosis and treatment of breast cancer” (Trustees of Darmouth College, priority 2005, dated 2014)",
  "key": {"human FAS gene promoter": {"test_system": "human FAS gene promoter", "test": "Human FAS gene promoter fragment luciferase reporter", "assay_type": "cell-based", "conditions": "48 hours exposure", "description": "(§1) Using a human S14 gene promoter fragment fused to a luciferase reporter, the mechanism underlying R1881-induced accumulation of S14 mRNA was determined. The human S14 construct contained the proximal 4003 bp of the S14 promoter (Campbell, et al. (2003) Endocrinol. 144:5242-5248). […] Nevertheless, R1881 induced promoter activity by 4-fold. Employing a 157 bp fragment of the human FAS gene promoter that is also devoid of progesterone response elements (Swinnen, et al. (1997) supra), the effect of R1881 on FAS gene expression was examined.\n(§2) T47D or HEK 293 cells were plated at 50% confluence in 75 cm^2 flasks and the next morning were transfected with 8 μg plasmid DNA in 48 μL FUGENE (Roche, Indianapolis, Ind.) in 5% charcoal-stripped serum-containing media without antibiotics. To ensure uniform transfection efficiency, cells were trypsinized, mixed, and redistributed into 6-well plates 8 hours later. Forty-eight hours post-transfection, culture medium was removed, and extracts prepared in reporter lysis buffer (250 μL/well; PROMEGA, Madison, Wis.). Lysates (20 μL) were assessed for luciferase activity using an LMaxII384 luminometer (MOLECULAR DEVICES, Sunnyvale, Calif.), and normalized to protein concentrations (BCA Protein Assay; Pierce, Rockland, Ill.)."}, "S14 mRNA [1]": {"test_system": "S14 mRNA", "conditions": "Heemers, et al. (2000); cited from earlier work"}, "S14 mRNA [2]": {"test_system": "S14 mRNA", "test": "Real-time RT-PCR of S14 mRNA in T47D cells"}, "human S14 gene promoter": {"test_system": "human S14 gene promoter", "test": "Human S14 gene promoter fragment luciferase reporter", "assay_type": "cell-based", "conditions": "proximal 4003 bp of human S14 promoter fused to luciferase", "description": "as §1, §2"}, "SREBP-1c mRNA": {"test_system": "SREBP-1c mRNA", "test": "Real-time RT-PCR of SREBP-1c mRNA in T47D cells", "conditions": "10 nM, within 48 hours, cyclophilin as control"}, "FAS mRNA": {"test_system": "FAS mRNA", "test": "Real-time RT-PCR of FAS mRNA in T47D cells"}, "S14 protein": {"test_system": "S14 protein", "test": "Western blot of S14 protein in T47D cells", "conditions": "single stimulus; R1881 10 nM 48 hours or adenovirus alone"}, "breast cancer cells": {"test_system": "breast cancer cells", "conditions": "Pizer, et al. (1996); cited from earlier work"}, "[3]": {"test_system": "human ovarian tumor cell xenografts", "conditions": "nude mice; Pizer, et al. (1996); cited from earlier work"}, "[4]": {"test_system": "lipogenic prostate cancer cells xenografts", "conditions": "immunodeficient mice; Kridel, et al. (2004); cited from earlier work"}, "[5]": {"test_system": "lipogenic prostate cancer cells", "conditions": "Kridel, et al. (2004); cited from earlier work"}, "[6]": {"conditions": "10 nM, within 48 hours, T47D cells, cyclophilin as control"}, "[7]": {"conditions": "time course using nM R5020, T47D cells"}},
  "data": [
    {"compound": "C[C@]1(O)CC[C@H]2[C@@H]3CCC4=CC(=O)CCC4=C3C=C[C@@]21C", "note": "[R1881]", "values": [
      {"measurement": "FAS promoter induction", "setting": "human FAS gene promoter; 157 bp fragment of human FAS gene promoter", "result": 4, "unit": "fold"},
      {"measurement": "FAS promoter response, construct with sterol response element deleted", "setting": "human FAS gene promoter", "result": "markedly reduced"},
      {"measurement": "S14 mRNA induction in T47D cells", "setting": "S14 mRNA [1]", "result": "significantly induces"},
      {"measurement": "S14 mRNA induction", "setting": "S14 mRNA [2]; [6]", "result": "significantly induced"},
      {"measurement": "S14 mRNA induction by R1881 in presence of control adenovirus (Ad-β-gal)", "setting": "S14 mRNA [2]; R1881 10 nM, RNA harvested 40 hours later, MOI 50", "result": "~8", "unit": "fold"},
      {"measurement": "S14 promoter activity induction", "setting": "human S14 gene promoter", "result": 4, "unit": "fold"},
      {"measurement": "SREBP-1c mRNA induction", "setting": "SREBP-1c mRNA", "result": "significantly induced"},
      {"measurement": "FAS mRNA induction", "setting": "FAS mRNA; [6]", "result": "significantly induced"},
      {"measurement": "FAS mRNA induction by R1881 in presence of Ad-β-gal", "setting": "FAS mRNA; T47D cells", "result": "~2", "unit": "fold"},
      {"measurement": "S14 protein (~16 kD band) on western blot", "setting": "S14 protein", "result": "faint band"}
    ]},
    {"compound": "CCC(=O)[C@@]1(C)CC[C@H]2[C@@H]3CCC4=CC(=O)CCC4=C3CC[C@@]21C", "note": "[R5020]", "values": [
      {"measurement": "S14 mRNA induction in T47D cells", "setting": "S14 mRNA [1]", "result": "significantly induces"},
      {"measurement": "S14 mRNA induction, time course", "setting": "S14 mRNA [2]; [7]", "result": "comparable to that observed with R1881"},
      {"measurement": "lag time between application of the hormone and onset of accumulation of S14 mRNA", "setting": "S14 mRNA [2]; time course, T47D cells", "result": "> 10", "unit": "h"},
      {"measurement": "FAS mRNA induction, time course", "setting": "FAS mRNA; [7]", "result": "comparable to that observed with R1881"},
      {"measurement": "lag time between application of the hormone and onset of accumulation of FAS mRNA", "setting": "FAS mRNA; time course, T47D cells", "result": "> 10", "unit": "h"}
    ]},
    {"compound": "C/C=C/C/C=C/CCC(=O)[C@H]1O[C@H]1C(N)=O", "note": "[Cerulenin]", "values": [
      {"measurement": "apoptosis of breast cancer cells", "setting": "breast cancer cells", "result": "cause apoptosis"},
      {"measurement": "growth of human ovarian tumor cell xenografts", "setting": "[3]", "result": "inhibit the growth"}
    ]},
    {"compound": "CCCCCCCCCCC[C@@H](C[C@@H]1OC(=O)[C@H]1CCCCCC)OC(=O)[C@H](CC(C)C)NC=O", "note": "[Orlistat]", "values": [
      {"measurement": "apoptosis of lipogenic prostate cancer cells in xenografts", "setting": "[4]", "result": "causes apoptosis"},
      {"measurement": "apoptosis of lipogenic prostate cancer cells in culture", "setting": "[5]", "result": "causes apoptosis"}
    ]}
  ]
}
